Results on 55 molecules are retold here after patent US6794386B2, “β-amino acid compounds as integrin antagonists” (Bayer Aktiengesellschaft, priority 2000, dated 2004).

Some results are limits rather than exact numbers.

This test concerns the target T1, VLA-4 (Homo sapiens, UniProt P05556+P13612).
T1 construct: host or cells: Jurkat clone E6-1
Briefly: Adhesion of Jurkat cells to immobilized VCAM-1 (domains 1-3). In kind it is cell-based. The note with it: adhesion of CFSE-labeled Jurkat cells to recombinant human VCAM-1 (domains 1-3) coated plates; compounds as yielded by solid phase synthesis, purity about 40-90%; read-out: IC50. An outline of the steps: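 CFSE-labelled Jurkat E6-1 cells in Tris buffer pH 7.4 with 2 mM MnCl2 were added to wells coated with insect-cell-expressed human VCAM-1 domains 1-3 (0.5 μg/ml coating solution); labelled cells were incubated for 30 min at 37 °C with the VLA-4 inhibitor.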

T1 sequence (P13612 34-1032): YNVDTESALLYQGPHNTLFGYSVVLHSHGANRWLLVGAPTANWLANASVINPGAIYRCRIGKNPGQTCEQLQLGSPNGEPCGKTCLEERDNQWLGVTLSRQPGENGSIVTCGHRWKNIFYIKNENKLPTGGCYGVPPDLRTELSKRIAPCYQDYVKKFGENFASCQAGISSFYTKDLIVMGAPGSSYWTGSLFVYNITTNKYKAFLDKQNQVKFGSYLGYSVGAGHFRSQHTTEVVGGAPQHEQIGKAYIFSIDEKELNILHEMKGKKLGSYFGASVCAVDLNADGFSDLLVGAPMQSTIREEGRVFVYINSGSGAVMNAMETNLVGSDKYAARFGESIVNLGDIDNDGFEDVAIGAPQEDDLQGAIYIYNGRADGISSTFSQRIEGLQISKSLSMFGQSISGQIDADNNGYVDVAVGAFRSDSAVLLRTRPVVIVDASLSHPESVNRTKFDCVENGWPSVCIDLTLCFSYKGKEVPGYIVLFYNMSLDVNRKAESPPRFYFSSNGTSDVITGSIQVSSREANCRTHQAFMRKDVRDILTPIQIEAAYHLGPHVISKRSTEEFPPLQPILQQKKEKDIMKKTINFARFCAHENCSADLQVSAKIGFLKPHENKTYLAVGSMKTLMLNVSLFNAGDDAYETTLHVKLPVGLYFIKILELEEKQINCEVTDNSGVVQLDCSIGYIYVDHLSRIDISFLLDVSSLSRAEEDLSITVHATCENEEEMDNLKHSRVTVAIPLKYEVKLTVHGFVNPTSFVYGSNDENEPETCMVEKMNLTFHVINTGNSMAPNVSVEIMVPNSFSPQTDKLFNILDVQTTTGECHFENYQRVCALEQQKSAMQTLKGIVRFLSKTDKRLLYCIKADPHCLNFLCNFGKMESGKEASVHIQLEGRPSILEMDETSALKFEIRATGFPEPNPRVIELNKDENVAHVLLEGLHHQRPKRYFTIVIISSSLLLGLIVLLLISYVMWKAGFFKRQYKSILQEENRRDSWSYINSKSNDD
T1 sequence (P05556 21-798): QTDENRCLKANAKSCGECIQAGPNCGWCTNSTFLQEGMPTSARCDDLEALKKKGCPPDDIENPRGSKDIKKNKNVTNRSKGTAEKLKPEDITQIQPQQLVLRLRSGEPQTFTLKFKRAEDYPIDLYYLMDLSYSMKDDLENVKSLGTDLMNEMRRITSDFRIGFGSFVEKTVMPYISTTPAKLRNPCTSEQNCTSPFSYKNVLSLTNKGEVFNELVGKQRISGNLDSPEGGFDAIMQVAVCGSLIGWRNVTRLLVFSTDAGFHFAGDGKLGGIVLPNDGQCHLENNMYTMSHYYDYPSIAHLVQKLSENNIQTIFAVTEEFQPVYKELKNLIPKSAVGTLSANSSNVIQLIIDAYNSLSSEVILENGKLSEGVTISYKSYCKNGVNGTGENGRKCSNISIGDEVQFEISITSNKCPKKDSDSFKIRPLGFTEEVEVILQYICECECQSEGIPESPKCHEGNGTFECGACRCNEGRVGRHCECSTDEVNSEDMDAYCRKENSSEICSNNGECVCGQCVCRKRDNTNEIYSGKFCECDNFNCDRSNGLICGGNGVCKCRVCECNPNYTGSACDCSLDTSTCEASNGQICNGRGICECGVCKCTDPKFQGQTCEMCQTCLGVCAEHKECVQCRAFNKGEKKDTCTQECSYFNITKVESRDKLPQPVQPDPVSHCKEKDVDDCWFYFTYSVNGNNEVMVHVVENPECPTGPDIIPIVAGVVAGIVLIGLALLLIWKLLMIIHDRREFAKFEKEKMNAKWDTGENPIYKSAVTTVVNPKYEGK

With `COc1ccc(S(=O)(=O)N2CCCC(C(=O)N[C@@H](Cc3ccc(NC(=O)NC4CCN(Cc5ccccc5)CC4)cc3)C(=O)O)C2)cc1OC` (stereo partly shown) [Example 4.40], the IC50 was 2000 to 10000 nM. Regarding `O=C(N[C@@H](Cc1ccc(NC(=O)N2CCCCC2)cc1)C(=O)O)C1CCCN(S(=O)(=O)c2ccc3ccccc3c2)C1` (stereo partly shown) [Example 4.41], the IC50 was not above 500 nM. Consider `O=C(N[C@@H](Cc1ccc(NC(=O)N2CCOCC2)cc1)C(=O)O)C1CCCN(S(=O)(=O)c2cccs2)C1` (stereo partly shown) [Example 4.42], for which the half-inhibitory concentration (IC50) was not above 500 nM. The value for `Cc1ccc(S(=O)(=O)N2CCCC(C(=O)N[C@@H](Cc3ccc(NC(=O)N4CCOCC4)cc3)C(=O)O)C2)cc1` (stereo partly shown) [Example 4.43] was not above 500 nM; that for `O=C(N[C@@H](Cc1ccc(NC(=O)N2CCOCC2)cc1)C(=O)O)C1CCCN(S(=O)(=O)Cc2ccccc2)C1` (stereo partly shown) [Example 4.44] was 500 to 2000 nM; that for `COc1ccc(S(=O)(=O)N2CCCC(C(=O)N[C@@H](Cc3ccc(NC(=O)N4CCN(C(c5ccccc5)c5ccccc5)CC4)cc3)C(=O)O)C2)cc1OC` (stereo partly shown) [Example 4.45] was 500 to 2000 nM. The value for `Cc1ccc(S(=O)(=O)N2CCCC(C(=O)N[C@@H](Cc3ccc(NC(=O)N4CCN(c5ccccc5)CC4)cc3)C(=O)O)C2)cc1` (stereo partly shown) [Example 4.46] was not above 500 nM; that for `O=C(N[C@@H](Cc1ccc(NC(=O)N2CCN(c3ccccc3)CC2)cc1)C(=O)O)C1CCCN(S(=O)(=O)Cc2ccccc2)C1` (stereo partly shown) [Example 4.47] was 500 to 2000 nM. Take `COc1ccc(S(=O)(=O)N2CCCC(C(=O)NC(Cc3ccc(NC(=O)N4CCc5ccccc5C4)cc3)C(=O)O)C2)cc1OC` (stereo not shown) [Example 4.48]: the IC50 was not above 500 nM. Next, `O=C(N[C@@H](Cc1ccc(NC(=O)N2CCOCC2)cc1)C(=O)O)C1CCCN(C(=O)c2ccccc2F)C1` (stereo partly shown) [Example 4.49]: not above 500 nM; `O=C(N[C@@H](Cc1ccc(NC(=O)N2CCN(c3ccccc3)CC2)cc1)C(=O)O)C1CCCN(C(=O)c2ccccc2F)C1` (stereo partly shown) [Example 4.50]: not above 500 nM; `CN1CCN(C(=O)Nc2ccc(C[C@H](NC(=O)C3CCCN(C(=O)c4ccccc4F)C3)C(=O)O)cc2)CC1` (stereo partly shown) [Example 4.51]: not above 500 nM. The value for `CC(C)NC(=O)N1CCCC(C(=O)N[C@@H](Cc2ccc(NC(=O)N3CCOCC3)cc2)C(=O)O)C1` (stereo partly shown) [Example 4.52] was not above 500 nM.

Take `O=C(N[C@@H](Cc1ccc(NC(=O)N2CCc3ccccc3C2)cc1)C(=O)O)C1CCCN(C(=O)C2CCCCC2)C1` (stereo partly shown) [Example 4.53]: the IC50 is 500 to 2000 nM. On to `COc1ccccc1NC(=O)N1CCCC(C(=O)N[C@@H](Cc2ccc(NC(=O)N3CCCCC3)cc2)C(=O)O)C1` (stereo partly shown) [Example 4.54], for which the IC50 lay within 500 to 2000 nM.

As for `COc1ccccc1NC(=O)N1CCCC(C(=O)N[C@H](Cc2ccc(NC(=O)N3CCN(c4ccccc4)CC3)cc2)C(=O)O)C1` (stereo partly shown) [Example 4.55], the IC50 lay in the range of 500 to 2000 nM. The value for `O=C(NCC(c1ccccc1)c1ccccc1)Nc1ccc(C[C@H](NC(=O)C2CCCN(C(=O)c3ccccc3F)C2)C(=O)O)cc1` (stereo partly shown) [Example 4.56] was 500 to 2000 nM; that for `CN1CCN(C(=O)Nc2ccc(C[C@H](NC(=O)C3CCCN(C(=O)Nc4ccccc4F)C3)C(=O)O)cc2)CC1` (stereo partly shown) [Example 4.57] was 500 to 2000 nM.

Regarding `O=C(N[C@@H](Cc1ccc(NC(=O)N2CCOCC2)cc1)C(=O)O)C1CCCN(C(=O)NC2CCCCC2)C1` (stereo partly shown) [Example 4.58], the IC50 is 500 to 2000 nM. In the case of `O=C(N[C@@H](Cc1ccc(NC(=O)N2CCOCC2)cc1)C(=O)O)C1CCCN(C(=O)Nc2ccc(-c3ccccc3)cc2)C1` (stereo partly shown) [Example 4.59], the IC50 lay within 500 to 2000 nM. Next, `O=C(N[C@@H](Cc1ccc(NC(=O)N2CCc3ccccc3C2)cc1)C(=O)O)C1CCCN(C(=O)Nc2ccccc2)C1` (stereo partly shown) [Example 4.60]: 500 to 2000 nM; `O=C(N[C@@H](Cc1ccc(NC(=O)N2CCOCC2)cc1)C(=O)O)C1CCCN(C(=O)Nc2ccccc2F)C1` (stereo partly shown) [Example 4.61]: 500 to 2000 nM. In the case of `CN1CCN(C(=O)Nc2ccc(C[C@H](NC(=O)C3CCCN(C(=O)NCc4ccccc4)C3)C(=O)O)cc2)CC1` (stereo partly shown) [Example 4.62], the 50% inhibitory concentration (IC50) is 500 to 2000 nM. For the molecule `COc1ccccc1NC(=O)N1CCCC(C(=O)N[C@@H](Cc2ccc(NC(=O)N3CCOCC3)cc2)C(=O)O)C1` (stereo partly shown) [Example 4.63], the IC50 was 500 to 2000 nM. Next, `COc1ccccc1-c1ccc(C[C@H](NC(=O)C2CCCN(c3ncnc(NC4CCN(Cc5ccccc5)CC4)c3F)C2)C(=O)O)cc1` (stereo partly shown) [Example 5.2]: 2000 to 10000 nM; `COc1ccccc1-c1ccc(C[C@H](NC(=O)C2CCCN(c3ncnc(NCCc4c[nH]cn4)c3F)C2)C(=O)O)cc1` (stereo partly shown) [Example 5.3]: 2000 to 10000 nM. The value for `COc1ccccc1-c1ccc(C[C@H](NC(=O)C2CCCN(c3ncnc(N)c3F)C2)C(=O)O)cc1` (stereo partly shown) [Example 5.4] was 500 to 2000 nM; that for `CN(C)CCNc1ncnc(N2CCCC(C(=O)N[C@H](Cc3ccc(NC(=O)N4CCN(C)CC4)cc3)C(=O)O)C2)c1F` (stereo partly shown) [Example 5.5] was 2000 to 10000 nM; that for `O=C(N[C@@H](Cc1ccc(NC(=O)N2CCN(c3ccccc3)CC2)cc1)C(=O)O)C1CCCN(c2ncnc(NCCc3c[nH]cn3)c2F)C1` (stereo partly shown) [Example 5.6] was 2000 to 10000 nM. Next, `COc1ccc(CCNc2ncnc(N3CCCC(C(=O)N[C@@H](Cc4ccc(NC(=O)N5CCN(C)CC5)cc4)C(=O)O)C3)c2F)cc1` (stereo partly shown) [Example 5.7]: 500 to 2000 nM.

Regarding `O=C(N[C@@H](Cc1ccc(NC(=O)N2CCOCC2)cc1)C(=O)O)C1CCCN(c2ncnc(NCc3ccccc3)c2F)C1` (stereo partly shown) [Example 5.8], the IC50 is 500 to 2000 nM.

As to `O=C(N[C@@H](Cc1ccc(NC(=O)N2CCOCC2)cc1)C(=O)O)C1CCCN(c2ncnc(N3CCCC3)c2F)C1` (stereo partly shown) [Example 5.9], the IC50 lay within 2000 to 10000 nM. Next, `O=C(N[C@@H](Cc1ccc(NC(=O)N2CCN(c3ccccc3)CC2)cc1)C(=O)O)C1CCCN(c2ncnc(N3CCCC3)c2F)C1` (stereo partly shown) [Example 5.10]: 2000 to 10000 nM. Next, `CN1CCN(C(=O)Nc2ccc(C[C@H](NC(=O)C3CCCN(c4ncnc(NCc5ccccc5)c4F)C3)C(=O)O)cc2)CC1` (stereo partly shown) [Example 5.11]: 500 to 2000 nM; `O=C(N[C@@H](Cc1ccc(NC(=O)N2CCOCC2)cc1)C(=O)O)C1CCCN(c2ncnc(N3CCN(c4ccccc4)CC3)c2F)C1` (stereo partly shown) [Example 5.12]: 2000 to 10000 nM; `CN1CCN(C(=O)Nc2ccc(C[C@H](NC(=O)C3CCCN(c4ncnc(N5CCCC5)c4F)C3)C(=O)O)cc2)CC1` (stereo partly shown) [Example 5.13]: 2000 to 10000 nM.

With `CN1CCN(C(=O)Nc2ccc(C[C@H](NC(=O)C3CCCN(c4ncnc(N5CCN(c6ccccc6)CC5)c4F)C3)C(=O)O)cc2)CC1` (stereo partly shown) [Example 5.14], the IC50 fell in the range of 2000 to 10000 nM. Next, `CN(C)CCCNc1ncnc(N2CCCC(C(=O)N[C@@H](Cc3ccc(NC(=O)N4CCN(c5ccccc5)CC4)cc3)C(=O)O)C2)c1F` (stereo partly shown) [Example 5.15]: 2000 to 10000 nM; `COCCNc1ncnc(N2CCCC(C(=O)N[C@@H](Cc3ccc(NC(=O)N4CCc5ccccc5C4)cc3)C(=O)O)C2)c1F` (stereo partly shown) [Example 5.16]: 2000 to 10000 nM; `O=C(N[C@@H](Cc1ccc(NC(=O)N2CCN(c3ccccc3)CC2)cc1)C(=O)O)C1CCCN(c2ncnc(N3CCSCC3)c2F)C1` (stereo partly shown) [Example 5.17]: 500 to 2000 nM. Next, `CN1CCN(C(=O)Nc2ccc(C[C@H](NC(=O)C3CCCN(c4ncnc(NCC(c5ccccc5)c5ccccc5)c4F)C3)C(=O)O)cc2)CC1` (stereo partly shown) [Example 5.18]: 500 to 2000 nM; `O=C(N[C@@H](Cc1ccc(NC(=O)N2CCN(c3ccccc3)CC2)cc1)C(=O)O)C1CCCN(c2ncnc(NCC(c3ccccc3)c3ccccc3)c2F)C1` (stereo partly shown) [Example 5.19]: 500 to 2000 nM. As to `CN1CCN(C(=O)Nc2ccc(C[C@H](NC(=O)C3CCCN(c4ncnc(N5CCCCCC5)c4F)C3)C(=O)O)cc2)CC1` (stereo partly shown) [Example 5.20], the half-inhibitory concentration (IC50) lay in the range of 500 to 2000 nM. Consider `O=C(N[C@@H](Cc1ccc(NC(=O)N2CCOCC2)cc1)C(=O)O)C1CCCN(c2ncnc(N3CCCCCC3)c2F)C1` (stereo partly shown) [Example 5.21], for which the IC50 was 500 to 2000 nM.

On to `O=C(N[C@@H](Cc1ccc(NC(=O)N2CCOCC2)cc1)C(=O)O)C1CCCN(c2ncnc(NC3CCN(Cc4ccccc4)CC3)c2F)C1` (stereo partly shown) [Example 5.22], for which the concentration for half-maximal inhibition (IC50) fell in the range of 2000 to 10000 nM.

`O=C(N[C@@H](Cc1ccc(NC(=O)N2CCN(c3ccccc3)CC2)cc1)C(=O)O)C1CCCN(c2ncnc(NC3CCN(Cc4ccccc4)CC3)c2F)C1` (stereo partly shown) [Example 5.23]: the IC50 fell in the range of 500 to 2000 nM.

As for `CN1CCN(C(=O)Nc2ccc(C[C@H](NC(=O)C3CCCN(c4ncnc(NC5CCCC5)c4F)C3)C(=O)O)cc2)CC1` (stereo partly shown) [Example 5.24], the IC50 was in the range of 2000 to 10000 nM. As to `CN1CCN(C(=O)Nc2ccc(C[C@H](NC(=O)C3CCCN(c4ncnc(NCCc5ccccc5)c4F)C3)C(=O)O)cc2)CC1` (stereo partly shown) [Example 5.25], the IC50 was in the range of 500 to 2000 nM.

In the case of `O=C(N[C@@H](Cc1ccc(NC(=O)N2CCN(c3ccccc3)CC2)cc1)C(=O)O)C1CCCN(c2ncnc(NCCc3ccccc3)c2F)C1` (stereo partly shown) [Example 5.26], the IC50 was in the range of 2000 to 10000 nM. Consider `CN1CCN(C(=O)Nc2ccc(C[C@H](NC(=O)C3CCCN(c4ncnc(N5CCc6ccccc6C5)c4F)C3)C(=O)O)cc2)CC1` (stereo partly shown) [Example 5.27], for which the IC50 fell in the range of 2000 to 10000 nM.

Consider `O=C(N[C@@H](Cc1ccc(NC(=O)N2CCOCC2)cc1)C(=O)O)C1CCCN(c2ncnc(NCc3cccnc3)c2F)C1` (stereo partly shown) [Example 5.28], for which the half-maximal inhibitory concentration (IC50) was 500 to 2000 nM. Next, `CN1CCN(C(=O)Nc2ccc(C[C@H](NC(=O)C3CCCN(c4ncnc(NCc5cccnc5)c4F)C3)C(=O)O)cc2)CC1` (stereo partly shown) [Example 5.29]: 2000 to 10000 nM; `O=C(N[C@@H](Cc1ccc(NC(=O)N2CCN(c3ccccc3)CC2)cc1)C(=O)O)C1CCCN(c2ncnc(NCc3cccnc3)c2F)C1` (stereo partly shown) [Example 5.30]: 500 to 2000 nM.

For `CN1CCN(C(=O)Nc2ccc(C[C@H](NC(=O)C3CCCN(c4ncnc(NCc5ccncc5)c4F)C3)C(=O)O)cc2)CC1` (stereo partly shown) [Example 5.31], the 50% inhibitory concentration (IC50) lay in the range of 500 to 2000 nM.

Take `CN1CCN(C(=O)Nc2ccc(C[C@H](NC(=O)C3CCCN(c4ncnc(NCC5CCNCC5)c4F)C3)C(=O)O)cc2)CC1` (stereo partly shown) [Example 5.32]: the IC50 is 500 to 2000 nM.
